Reference: PMC8793051 (ACS Omega, 2022)

Assays:
[1] = system: HS 578T; test: NCI-60 SRB growth assay; type: cell-based, human
[2] = system: A498; test: NCI-60 SRB growth assay; type: cell-based, human
[3] = system: OVCAR-4; test: NCI-60 SRB growth assay; type: cell-based, human
[4] = system: NCI-H460; test: NCI-60 SRB growth assay; type: cell-based, human
[5] = system: oligo-2: d(CGATGTACATCG)2; test: Fluorescence titration; type: binding; conditions: 20 °C, pH 7.2
[6] = system: EKVX; test: NCI-60 SRB growth assay; type: cell-based, human
[7] = system: U251; test: NCI-60 SRB growth assay; type: cell-based, human
[8] = system: UACC-257; test: NCI-60 SRB growth assay; type: cell-based, human
[9] = system: SF-295; test: NCI-60 SRB growth assay; type: cell-based, human
[10] = system: T-47D; test: NCI-60 SRB growth assay; type: cell-based, human
[11] = system: BT-549; test: NCI-60 SRB growth assay; type: cell-based, human; conditions: BT-549
[12] = system: CAKI-1; test: NCI-60 SRB growth assay; type: cell-based, human
[13] = system: MOLT-4; test: NCI-60 SRB growth assay; type: cell-based, human
[14] = system: M14; test: NCI-60 SRB growth assay; type: cell-based, human; conditions: M14
[15] = system: NIH3T3; test: MTT cytotoxicity assay; type: cell-based; conditions: Mus musculus, NIH3T3, 48 h
[16] = system: 786-0; test: NCI-60 SRB growth assay; type: cell-based, human
[17] = system: NCI-H522; test: NCI-60 SRB growth assay; type: cell-based, human
[18] = system: RXF 393; test: NCI-60 SRB growth assay; type: cell-based, human
[19] = system: NCI-H226; test: NCI-60 SRB growth assay; type: cell-based, human
[20] = system: panel of 60 human cancer cell lines; test: cells; conditions: read-out: GI50 concentration range
[21] = system: A549/ATCC; test: NCI-60 SRB growth assay; type: cell-based, human
[22] = system: IGROV1; test: NCI-60 SRB growth assay; type: cell-based, human
[23] = system: MDA-MB-435; test: NCI-60 SRB growth assay; type: cell-based, human
[24] = system: ACHN; test: NCI-60 SRB growth assay; type: cell-based, human
[25] = system: oligo-1: d(CGCGAATTCGCG)2; test: Fluorescence titration; type: binding; conditions: 20 °C, pH 7.2
[26] = system: SK-MEL-5; test: NCI-60 SRB growth assay; type: cell-based, human
[27] = system: SK-MEL-28; test: NCI-60 SRB growth assay; type: cell-based, human
[28] = system: KM12; test: NCI-60 SRB growth assay; type: cell-based, human
[29] = system: oligo-1: d(CGCGAATTCGCG)2; test: UV thermal denaturation; type: binding
[30] = system: HT29; test: NCI-60 SRB growth assay; type: cell-based, human
[31] = system: oligo-2: d(CGATGTACATCG)2; test: UV thermal denaturation; type: binding
[32] = system: OVCAR-5; test: NCI-60 SRB growth assay; type: cell-based, human

CCCCN1CCN(c2ccc3[nH]c(-c4ccc5[nH]c(-c6ccc(C(F)(F)F)cc6)nc5c4)nc3c2)CC1 [12b, 5-(5-(4-Butylpiperazin-1-yl)-1H-benzo[d]imidazol-2-yl)2(4(trifluoromethyl)phenyl)-1H-benzo[d]imidazole]
TGI ([1]; HS578T): 3.05 - μM
GI50 ([1]; Homo sapiens, Hs-578T): 1260 nM
TGI ([2]; A498): 3310 nM
GI50 ([2]; Homo sapiens, A498): 1690 nM
CC50 ([2]; Homo sapiens, A498, read-out: LC50): 6490 nM
GI50 ([3]; Homo sapiens, OVCAR-4): 600 nM
CC50 ([3]; Homo sapiens, OVCAR-4, read-out: LC50): 5200 nM
TGI ([3]; OVCAR-4): 1800 nM
GI50 ([4]; Homo sapiens, NCI-H460): 230 nM
CC50 ([4]; Homo sapiens, NCI-H460, read-out: LC50): 1620 nM
TGI ([4]; NCI–H460): 500 nM
Ka binding affinity with oligo-2 [5]: 2 × 10^6 M^1
TGI [6]: 2900 nM
GI50 ([6]; Homo sapiens): 1500 nM
CC50 ([6]; Homo sapiens, read-out: LC50): 5700 nM
GI50 ([7]; Homo sapiens, U-251): 240 nM
TGI ([7]; U251): 560 nM
GI50 ([8]; Homo sapiens, UACC-257): 1700 nM
CC50 ([8]; Homo sapiens, UACC-257, read-out: LC50): 7200 nM
TGI ([8]; UACC-257): 3500 nM
GI50 ([9]; Homo sapiens, SF-295): 1340 nM
CC50 ([9]; Homo sapiens, SF-295, read-out: LC50): 5400 nM
TGI ([9]; SF-265): 2700 nM
GI50 ([10]; Homo sapiens, T47D): 1240 nM
TGI ([10]; T-47D): 3230 nM
TGI [11]: 3150 nM
GI50 ([11]; Homo sapiens): 1620 nM
TGI ([12]; CAKI-1): 2580 nM
GI50 ([12]; Homo sapiens, CAKI-1): 1290 nM
CC50 ([12]; Homo sapiens, CAKI-1, read-out: LC50): 5150 nM
GI50 ([13]; Homo sapiens, MOLT-4): 1070 nM
CC50 ([13]; Homo sapiens, MOLT-4, read-out: LC50): 6300 nM
TGI ([13]; MOLT-4): 2500 nM
GI50 ([14]; Homo sapiens): 370 nM
TGI [14]: 2400 nM
IC50 [15]: 3200 nM
TGI ([16]; 786–0): 3040 nM
GI50 ([16]; Homo sapiens, 786-0): 1470 nM
GI50 ([17]; Homo sapiens, NCI-H522): 1600 nM
TGI ([17]; NCI–H522): 3600 nM
GI50 ([18]; Homo sapiens, RXF 393): 470 nM
TGI ([18]; RXF393): 1500 nM
GI50 ([19]; Homo sapiens, NCI-H226): 1570 nM
TGI ([19]; NCI–H226): 3590 nM
GI50 [20]: 160 to 3600 nM
TGI ([21]; A549/ATCC): 1190 nM
GI50 ([21]; Homo sapiens, A549): 350 nM
GI50 ([22]; Homo sapiens, IGROV-1): 1700 nM
TGI ([22]; IGROV1): 3400 nM
GI50 ([23]; Homo sapiens, MDA-MB-435): 1400 nM
CC50 ([23]; Homo sapiens, MDA-MB-435, read-out: LC50): 5500 nM
TGI ([23]; MDA-MB-435): 2800 nM
TGI [24]: 2600 nM
GI50 ([24]; Homo sapiens): 1320 nM
CC50 ([24]; Homo sapiens, read-out: LC50): 5140 nM
Ka binding affinity with oligo-1 [25]: 1 × 10^7 M^–1
GI50 ([26]; Homo sapiens, SK-MEL-5): 1600 nM
CC50 ([26]; Homo sapiens, SK-MEL-5, read-out: LC50): 6200 nM
TGI ([26]; SK-MEL-5): 3200 nM
GI50 ([27]; Homo sapiens, SK-MEL-28): 1700 nM
CC50 ([27]; Homo sapiens, SK-MEL-28, read-out: LC50): 5900 nM
TGI ([27]; SK-MEL-28): 3100 nM
GI50 ([28]; Homo sapiens, KM12): 670 nM
CC50 ([28]; Homo sapiens, KM12, read-out: LC50): 4900 nM
TGI ([28]; KM12): 2040 nM
ΔTm ([29]; r = 0.5): 3 °C
Tm ([29]; r = 0.5, oligo 2.5 μM): 57.7 °C
Tm ([29]; r = 1): 58.7 °C
ΔTm ([29]; r = 1): 4 °C
Tm ([29]; r = 1.5): 59.7 °C
ΔTm ([29]; r = 1.5): 5 °C
Tm ([29]; r = 2.0): 61.7 °C
ΔTm ([29]; r = 2.0): 7 °C
TGI ([30]; HT29): 1420 nM
GI50 ([30]; Homo sapiens, HT-29): 340 nM
ΔTm ([31]; r = 0.5): 1 °C
Tm ([31]; r = 0.5, oligo 2.5 μM): 57.9 °C
Tm ([31]; r = 1): 58.9 °C
ΔTm ([31]; r = 1): 2 °C
Tm ([31]; r = 1.5): 58.9 °C
ΔTm ([31]; r = 1.5): 2 °C
Tm ([31]; r = 2.0): 59.9 °C
ΔTm ([31]; r = 2.0): 3 °C
GI50 ([32]; Homo sapiens, OVCAR-5): 1800 nM
CC50 ([32]; Homo sapiens, OVCAR-5, read-out: LC50): 5900 nM
TGI ([32]; OVCAR-5): 3500 nM
